Laboratory results published in patent US9969775B2, “CGRP antagonist peptides” (Ferring B.V., priority 2015, dated 2018).
Numbered stars: 1 amine (or outer) side, 2 acyl side, 3 side chain; on linkers, the order of the positions; unused ones are H or OH. Bridge positions count the residues as written; N and C are the ends. Square brackets hold non-standard residues; d marks the D form. Peptide text beside a SMILES is read from it. * marks the point of attachment. Phe(3-CH2NH2) = O=C([C@H](Cc1cccc(CN[*:3])c1)N[*:1])[*:2]; Phe(2-CONH2) = NC(=O)c1ccccc1C[C@H](N)C(=O)O; X5 = O=C([C@H](Cc1ccc(CO)cc1)N[*:1])[*:2]; Triazol3yl(1,2,4-5-NH2) = Nc1nc(*)n[nH]1; X3 = NCc1ccccc1C[C@H](N[*:1])C(=O)[*:2]; Imidazole4carbonyl = O=C(c1cnc[nH]1)*; Picolinoyl(5-F) = O=C(c1ccc(F)cn1)*; Orn(iPr) = CC(C)NCCC[C@H](N)C(=O)O; Orn(Me2) = CN(C)CCC[C@H](N)C(=O)O; Oxazole2carbonyl = O=C(c1ncco1)*; 3Pal = N[C@@H](Cc1cccnc1)C(=O)O; X4 = O=C(c1ncccc1[N+](=O)[O-])*; Pyrrole2CO = O=C(c1ccc[nH]1)*; Picolinoyl = O=C(c1ccccn1)*; ΔPro = O=C(O)[C@@H]1C=CCN1; Orn = NCCC[C@H](N)C(=O)O; X2 = Cc1n[nH]c(C(=O)*)n1; X11 = O=C(c1ncccc1Cl)*; X1 = O=C(c1ncccc1F)*

Experiments:
[1] = target: T1, hCGRP receptor (CALCRL:RAMP1) (Homo sapiens, UniProt O60894+Q16602); test: CGRP receptor antagonist activity measured by cAMP assay (HTRF); type: cell-based; conditions: agonist human α-CGRP; for Emax: % MPE: percent of the maximal possible effect, read-out: hCGRP-R Efficacy Antag (%) Ave; for IC50: GeneBLAzer CALCRL:RAMP1-CRE-bla Freestyle 293F cells, 30 minutes, read-out: hCGRP-R IC50 Ave
T1 construct: host or cells: GeneBLAzer CALCRL:RAMP1-CRE-bla Freestyle 293F

[2] = target: T2, hAM2 receptor (CALCRL:RAMP3) (Homo sapiens, UniProt O60896+Q16602); test: AM2 receptor antagonist activity measured by cAMP assay (HTRF); type: cell-based; conditions: for Emax: % MPE: percent of the maximal possible effect, read-out: hAM2-R Efficacy Antag (%) Ave; for Emax / IC50: agonist human adrenomedullin; for IC50: GeneBLAzer CALCRL:RAMP3-CRE-bla Freestyle 293F cells, read-out: hAM2-R IC50 Ave; for selectivity ratio CGRP/AM2: selectivity ratio for hCGRP over hAM2, calculated from the IC50 values
T2 construct: expressed in transfected cells; host or cells: GeneBLAzer CALCRL:RAMP3-CRE-bla Freestyle 293F
T2 sequence (Q16602 23-461): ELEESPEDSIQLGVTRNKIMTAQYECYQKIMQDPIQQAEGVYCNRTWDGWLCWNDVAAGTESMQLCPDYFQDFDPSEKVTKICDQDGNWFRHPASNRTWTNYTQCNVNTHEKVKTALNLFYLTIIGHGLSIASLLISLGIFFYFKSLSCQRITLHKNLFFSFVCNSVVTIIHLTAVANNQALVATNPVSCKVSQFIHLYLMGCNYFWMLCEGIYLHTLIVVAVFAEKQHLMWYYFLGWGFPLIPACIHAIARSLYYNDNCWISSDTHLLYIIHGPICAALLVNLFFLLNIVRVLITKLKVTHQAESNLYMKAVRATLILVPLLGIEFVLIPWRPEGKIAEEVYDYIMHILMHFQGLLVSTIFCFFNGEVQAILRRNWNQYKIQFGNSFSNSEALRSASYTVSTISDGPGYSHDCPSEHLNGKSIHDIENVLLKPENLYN
T2 sequence (O60896 24-148): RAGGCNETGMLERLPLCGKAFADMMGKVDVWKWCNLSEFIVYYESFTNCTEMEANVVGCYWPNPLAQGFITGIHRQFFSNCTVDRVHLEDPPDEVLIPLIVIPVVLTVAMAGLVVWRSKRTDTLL
Method: Antagonist activity for the adrenomedullin receptor AM2 was determined using the method described in Example 6 above, with the following modifications. Instead of GeneBLAzer® CALCRL:RAMP1-CRE-bla Freestyle™ 293F cells, GeneBLAzer® CALCRL:RAMP3-CRE-bla Freestyle™ 293F cells were used to test activity at hAM2 receptors. The agonist was human adrenomedullin, instead of α-CGRP.
In Table 5, the selectivity ratio for hCGRP over hAM2 is calculated as hCGRP-R IC50/hAM2-R IC50.

T1 sequence (Q16602 23-461): as the sequence (Q16602 23-461) above
T1 sequence (O60894 27-148): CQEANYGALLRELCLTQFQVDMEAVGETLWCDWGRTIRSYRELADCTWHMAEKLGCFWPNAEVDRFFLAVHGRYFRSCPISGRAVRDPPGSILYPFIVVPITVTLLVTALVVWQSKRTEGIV

Structure (SMILES) | Emax [1] [%] | IC50 [1] [nM] | Emax [2] [%] | IC50 [2] [nM] | selectivity ratio CGRP/AM2 [2]
CC(C)[C@@H]1NC(=O)[C@H](CC(=O)O)NC(=O)[C@H](CCCNC(=N)N)NC(=O)[C@@H](NC(=O)[C@H](Cc2ccc(O)cc2)NC(=O)[C@H](NC(=O)c2cnc[nH]2)C(C)C)CSSC[C@@H](C(=O)N[C@@H](Cc2cccnc2)C(N)=O)NC(=O)[C@H](Cc2ccccc2)NC(=O)[C@@H]2CCCN2C(=O)CNC1=O [Compound 47] (Imidazole4carbonyl-[dV]YCRDVGPFC[3Pal]-NH2; disulfide 3-10) |  | 0.16 |  | 232 | 
Cc1n[nH]c(C(=O)N[C@@H](C(=O)N[C@@H](Cc2ccc(O)cc2)C(=O)N[C@H]2CSSC[C@@H](C(=O)N[C@@H](Cc3cccnc3)C(N)=O)NC(=O)[C@H](Cc3ccccc3)NC(=O)[C@@H]3CCCN3C(=O)CNC(=O)[C@H](C(C)C)NC(=O)[C@H](CC(=O)O)NC(=O)[C@H](CCCNC(=N)N)NC2=O)C(C)C)n1 [Compound 48] (X2-[dV]YCRDVGPFC[3Pal]-NH2; disulfide 3-10) | 100 | 0.07 | 96 | 402 | 5610
CC(C)[C@@H]1NC(=O)[C@H](CC(=O)O)NC(=O)[C@H](CCCNC(=N)N)NC(=O)[C@@H](NC(=O)[C@H](Cc2ccc(O)cc2)NC(=O)[C@H](NC(=O)c2ncccc2[N+](=O)[O-])C(C)C)CSSC[C@@H](C(=O)N[C@@H](Cc2cccnc2)C(N)=O)NC(=O)[C@H](Cc2ccccc2)NC(=O)[C@@H]2CCCN2C(=O)CNC1=O [Compound 50] (X4-[dV]YCRDVGPFC[3Pal]-NH2; disulfide 3-10) | 100 | 0.18 | 99 | 8.1 | 46
CC(C)[C@@H]1NC(=O)[C@H](CC(=O)O)NC(=O)[C@H](CCCNC(=N)N)NC(=O)[C@@H](NC(=O)[C@H](Cc2ccc(O)cc2)NC(=O)[C@H](NC(=O)c2ncccc2Cl)C(C)C)CSSC[C@@H](C(=O)N[C@@H](Cc2cccnc2)C(N)=O)NC(=O)[C@H](Cc2ccccc2)NC(=O)[C@@H]2CCCN2C(=O)CNC1=O [Compound 51] (X11-[dV]YCRDVGPFC[3Pal]-NH2; disulfide 3-10) | 100 | 0.14 | 100 | 13 | 92
CC(C)NCCC[C@@H]1NC(=O)[C@@H](NC(=O)[C@H](Cc2ccccc2C(N)=O)NC(=O)[C@H](NC(=O)c2ccccn2)C(C)C)CSSC[C@@H](C(=O)N[C@@H](Cc2cccnc2)C(N)=O)NC(=O)[C@H](Cc2cccc(CN)c2)NC(=O)[C@@H]2C=CCN2C(=O)CNC(=O)[C@H](C(C)C)NC(=O)[C@H](CC(=O)O)NC1=O [Compound 54, Picolinoyl-D-Val-Phe(2-Cbm)-c(Cys-Orn(iPr)-Asp-Val-Gly-Dhp-Phe(3-CH2NH2)-Cys)-3Pal-NH2] (Picolinoyl-[dV][Phe(2-CONH2)]C[Orn(iPr)]DVG[ΔPro][Phe(3-CH2NH2)]C[3Pal]-NH2; disulfide 3-10) | 100 | 0.17 | 99 | 150 | 898
CC(C)NCCC[C@@H]1NC(=O)[C@@H](NC(=O)[C@H](Cc2ccc(O)cc2)NC(=O)[C@H](NC(=O)c2ccccn2)C(C)C)CSSC[C@@H](C(=O)N[C@@H](Cc2cccnc2)C(N)=O)NC(=O)[C@H](Cc2ccc(CO)cc2)NC(=O)[C@@H]2CCCN2C(=O)CNC(=O)[C@H](C(C)C)NC(=O)[C@H](CC(=O)O)NC1=O [Compound 55, Picolinoyl-D-Val-Tyr-c(Cys-Orn(iPr)-Asp-Val-Gly-Pro-Phe(4-CH2OH)-Cys)-3Pal-NH2] (Picolinoyl-[dV]YC[Orn(iPr)]DVGP[X5]C[3Pal]-NH2; disulfide 3-10) | 100 | 0.18 | 100 | 137 | 746

Other lines, results leading:

Emax [1] [%] | IC50 [1] [nM] | Emax [2] [%] | IC50 [2] [nM] | selectivity ratio CGRP/AM2 [2] | Structure (SMILES)
100 | 0.15 | 99 | 184 | 1189 | CC(C)[C@@H]1NC(=O)[C@H](CC(=O)O)NC(=O)[C@H](CCCN(C)C)NC(=O)[C@@H](NC(=O)[C@H](Cc2ccc(O)cc2)NC(=O)[C@H](NC(=O)c2ncccc2F)C(C)C)CSSC[C@@H](C(=O)N[C@@H](Cc2cccnc2)C(N)=O)NC(=O)[C@H](Cc2ccccc2)NC(=O)[C@@H]2CCCN2C(=O)CNC1=O [Compound 46, Picolinoyl(3-F)-D-Val-Tyr-c(Cys-Orn(Me2)-Asp-Val-Gly-Pro-Phe-Cys)-3Pal-NH2] (X1-[dV]YC[Orn(Me2)]DVGPFC[3Pal]-NH2; disulfide 3-10)
100 |  | 99 |  | 1460 | CC(C)[C@@H]1NC(=O)[C@H](CC(=O)O)NC(=O)[C@H](CCCNC(=N)N)NC(=O)[C@@H](NC(=O)[C@H](Cc2ccc(O)cc2)NC(=O)[C@H](NC(=O)c2c[nH]cn2)C(C)C)CSSC[C@@H](C(=O)N[C@@H](Cc2cccnc2)C(N)=O)NC(=O)[C@H](Cc2ccccc2)NC(=O)[C@@H]2CCCN2C(=O)CNC1=O [Compound 47] (Imidazole4carbonyl-[dV]YCRDVGPFC[3Pal]-NH2; disulfide 3-10)
100 | 0.19 | 99 | 89 | 461 | CC(C)[C@@H]1NC(=O)[C@H](CC(=O)O)NC(=O)[C@H](CCCNC(=N)N)NC(=O)[C@@H](NC(=O)[C@H](Cc2ccc(O)cc2)NC(=O)[C@H](NC(=O)c2ccc[nH]2)C(C)C)CSSC[C@@H](C(=O)N[C@@H](Cc2cccnc2)C(N)=O)NC(=O)[C@H](Cc2ccccc2)NC(=O)[C@@H]2CCCN2C(=O)CNC1=O [Compound 49] (Pyrrole2CO-[dV]YCRDVGPFC[3Pal]-NH2; disulfide 3-10)
100 |  | 97 |  |  | CC(C)[C@@H]1NC(=O)[C@H](CC(=O)O)NC(=O)[C@H](CCCNc2nc(N)n[nH]2)NC(=O)[C@@H](NC(=O)[C@H](Cc2ccccc2C(N)=O)NC(=O)[C@H](NC(=O)c2ncco2)C(C)C)CSSC[C@@H](C(=O)N[C@@H](Cc2cccnc2)C(N)=O)NC(=O)[C@H](Cc2cccnc2)NC(=O)[C@@H]2CCCN2C(=O)CNC1=O [Compound 52, Oxazole-2-carbonyl-D-Val-Phe(2-Cbm)-c(Cys-Orn(Atz)-Asp-Val-Gly-Pro-3Pal-Cys)-3Pal-NH2] (Oxazole2carbonyl-[dV][Phe(2-CONH2)]C[Orn](Triazol3yl(1,2,4-5-NH2))DVGP[3Pal]C[3Pal]-NH2; disulfide 3-10)
100 | 0.11 | 98 | 901 | 8130 | Cc1n[nH]c(C(=O)N[C@@H](C(=O)N[C@@H](Cc2ccc(O)cc2)C(=O)N[C@H]2CSSC[C@@H](C(=O)N[C@@H](Cc3cccnc3)C(N)=O)NC(=O)[C@H](Cc3ccccc3CN)NC(=O)[C@@H]3CCCN3C(=O)CNC(=O)[C@H](C(C)C)NC(=O)[C@H](CC(=O)O)NC(=O)[C@H](CCCNC(=N)N)NC2=O)C(C)C)n1 [Compound 53, 1H-1,2,4-triazole-5-carbonyl(3-Me)-D-Val-Tyr-c(Cys-Arg-Asp-Val-Gly-Pro-Phe(2-CH2NH2)-Cys)-3Pal-NH2] (X2-[dV]YCRDVGP[X3]C[3Pal]-NH2; disulfide 3-10)
100 | 0.17 | 100 | 55 | 328 | CC(C)[C@@H]1NC(=O)[C@H](CC(=O)O)NC(=O)[C@H](CCCN)NC(=O)[C@@H](NC(=O)[C@H](Cc2ccc(O)cc2)NC(=O)[C@H](NC(=O)c2ccc(F)cn2)C(C)C)CSSC[C@@H](C(=O)N[C@@H](Cc2cccnc2)C(N)=O)NC(=O)[C@H](Cc2ccc(CO)cc2)NC(=O)[C@@H]2CCCN2C(=O)CNC1=O [Compound 56, Picolinoyl(5-F)-D-Val-Tyr-c(Cys-Orn-Asp-Val-Gly-Pro-Phe(4-CH2OH)-Cys)-3Pal-NH2] ({Picolinoyl(5-F)}-[dV]YC[Orn]DVGP[X5]C[3Pal]-NH2; disulfide 3-10)
100 | 0.12 | 99 | 624 | 5225 | CC(C)NCCC[C@@H]1NC(=O)[C@@H](NC(=O)[C@H](Cc2ccccc2C(N)=O)NC(=O)[C@H](NC(=O)c2ncco2)C(C)C)CSSC[C@@H](C(=O)N[C@@H](Cc2cccnc2)C(N)=O)NC(=O)[C@H](Cc2ccc(O)cc2)NC(=O)[C@@H]2C=CCN2C(=O)CNC(=O)[C@H](C(C)C)NC(=O)[C@H](CC(=O)O)NC1=O [Compound 57, Oxazole-2-carbonyl-D-Val-Phe(2-Cbm)-c(Cys-Orn(iPr)-Asp-Val-Gly-Dhp-Tyr-Cys)-3Pal-NH2] (Oxazole2carbonyl-[dV][Phe(2-CONH2)]C[Orn(iPr)]DVG[ΔPro]YC[3Pal]-NH2; disulfide 3-10)
100 | 0.18 | 99 | 476 | 2588 | CC(C)NCCC[C@@H]1NC(=O)[C@@H](NC(=O)[C@H](Cc2ccccc2C(N)=O)NC(=O)[C@H](NC(=O)c2ncco2)C(C)C)CSSC[C@@H](C(=O)N[C@@H](Cc2cccnc2)C(N)=O)NC(=O)[C@H](Cc2cccnc2)NC(=O)[C@@H]2C=CCN2C(=O)CNC(=O)[C@H](C(C)C)NC(=O)[C@H](CC(=O)O)NC1=O [Compound 58, Oxazole-2-carbonyl-D-Val-Phe(2-Cbm)-c(Cys-Orn(iPr)-Asp-Val-Gly-Dhp-3Pal-Cys)-3Pal-NH2] (Oxazole2carbonyl-[dV][Phe(2-CONH2)]C[Orn(iPr)]DVG[ΔPro][3Pal]C[3Pal]-NH2; disulfide 3-10)
